Reference: patent US4605614A, “Method for measuring plasmin” (Nitto Boseki Co., Ltd., priority 1981, dated 1986)
Where a SMILES comes first, the peptide text is derived from it. [ ]: non-standard residue; d: D form. The star is where a group is joined. pNA = O=[N+]([O-])c1ccc(N*)cc1; Tos = Cc1ccc(S(=O)(=O)*)cc1

Legend:
plasmin (pig) = plasmin (pig) (Sus scrofa, UniProt P06867); experiment: Km, Vmax and Vmax/Km of substrates for plasmin (pig); assay type: biochemical, Porcine (pig); settings: for Vmax (× 10^-7): TABLE 2, CHA substrates, plasmin (pig), 2,6-xylenol 615 nm; for Vmax (× 10^7): 405 nm
plasmin (pig), sequence (P06867 97-809): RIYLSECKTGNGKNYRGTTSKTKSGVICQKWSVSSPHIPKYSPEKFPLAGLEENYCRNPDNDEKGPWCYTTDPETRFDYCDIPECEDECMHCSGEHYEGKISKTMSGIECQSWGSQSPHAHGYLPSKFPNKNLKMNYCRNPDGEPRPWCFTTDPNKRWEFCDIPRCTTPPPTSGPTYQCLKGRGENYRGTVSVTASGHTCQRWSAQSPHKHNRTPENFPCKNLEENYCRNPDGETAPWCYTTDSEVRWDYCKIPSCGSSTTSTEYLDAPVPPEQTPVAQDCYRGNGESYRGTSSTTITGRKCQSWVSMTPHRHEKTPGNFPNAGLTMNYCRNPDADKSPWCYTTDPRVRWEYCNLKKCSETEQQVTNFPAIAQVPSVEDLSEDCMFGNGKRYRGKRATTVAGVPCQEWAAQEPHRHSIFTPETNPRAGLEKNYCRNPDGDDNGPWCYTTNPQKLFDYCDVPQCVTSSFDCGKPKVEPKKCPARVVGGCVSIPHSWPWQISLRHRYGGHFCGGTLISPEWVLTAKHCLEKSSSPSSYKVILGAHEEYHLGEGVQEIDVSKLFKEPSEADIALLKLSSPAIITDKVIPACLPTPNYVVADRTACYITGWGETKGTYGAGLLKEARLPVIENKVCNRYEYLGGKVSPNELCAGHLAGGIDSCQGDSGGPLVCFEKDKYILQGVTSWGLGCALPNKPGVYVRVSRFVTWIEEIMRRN
Source text: The substrates produced by the above examples were used in the measurement of plasmin as follows: The principle of this measurement comprises quantitatively analyzing the decomposition product p-nitroaniline or 3-carboxy-4-hydroxyaniline produced by the enzymatic hydrolysis, by measuring the absorbance (O.D.) directly at 405 nm in the case of p-nitroaniline and, in the case of the 3-carboxy-4-hydroxyaniline at 615 nm after condensing it with 2,6-xylenol in the presence of an oxidant to develop a color.
For the measurements of these constants, the following method is adopted:
The enzyme and the substrate are mixed in a buffer solution and subjected to the hydrolysis for 30 seconds. The concentration of the substrate [S] is changed and the enzyme concentration is maintained constant. By measuring the absorbance (O.D.), the initial velocity of the hydrolysis can be determined. Where 1/V is plotted as a function of 1/[S], there is obtained a Lineweaver and Burk's linea from which graph the Vmax and Km can be determined.

Kallikrein (KL) = Kallikrein (KL) (Sus scrofa, UniProt P00752); assay type: biochemical, Pig; settings: pH 7.9, 37° C., 10 minutes, 1.0 BAEE-U/ml; for Selectivity KL, absorbance (O.D.) at 645 nm: TABLE 4, CHA substrates, So = 0.54; for Selectivity KL, absorbance (O.D.) at 405 nm: TABLE 3, PNA substrates, So = 0.54 mmole/l
Kallikrein (KL), sequence (P00752 8-246): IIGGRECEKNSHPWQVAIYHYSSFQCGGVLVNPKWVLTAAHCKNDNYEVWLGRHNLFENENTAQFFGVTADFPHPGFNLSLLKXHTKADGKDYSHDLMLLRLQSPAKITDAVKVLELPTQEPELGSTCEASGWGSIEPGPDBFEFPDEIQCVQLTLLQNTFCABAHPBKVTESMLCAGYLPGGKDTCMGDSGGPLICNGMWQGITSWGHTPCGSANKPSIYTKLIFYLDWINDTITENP
Procedure: (§1) The specificities of the novelly synthesized substrates were tested by reacting them with various enzymes respectively.
(§2) (1) Substrate solution concentration: 35 mmole/liter H2 O
(§3) (2) Buffer: Tris-hydrochloric acid buffer 50 mmole/l, NaCl 150 mmole/l (0.875%) was employed, and the pH for reaction was as follows depending on the enzyme.
(§4) 2,6-Xylenol 7.0 mmole+NaIO4 1.5 mmole/0.2N KOH
(§5) 0.5 ml of the buffer solution and 0.05 ml of the enzyme reagent were taken into a silicon-treated hard glass test tube or a plastic test tube, and preheated in a constant temperature bath at 37° C. for 5 minutes. Thereafter, 0.1 ml of the substrate solution was added to effect the enzymatic reaction at 37° C. for 10 minutes. Exactly after 10 minutes, 2.5 ml of the reaction terminating solution or the terminating and color developing reagent solution was added to terminate the enzymatic reaction, and after allowing to stand at 25° C. for 10 minutes, the absorbance at 405 nm or 645 nm was measured, in which [drawing 49]

Thrombin (TH) = Thrombin (TH) (Bos taurus, UniProt P00735); assay type: biochemical, Cow; settings: pH 8.4, 37° C., 10 minutes, 1.0 NIH/ml; for Selectivity TH, absorbance (O.D.) at 645 nm: TABLE 4, CHA substrates, So = 0.54; for Selectivity TH, absorbance (O.D.) at 405 nm: TABLE 3, PNA substrates, So = 0.54 mmole/l
Thrombin (TH), sequence (P00735 44-625): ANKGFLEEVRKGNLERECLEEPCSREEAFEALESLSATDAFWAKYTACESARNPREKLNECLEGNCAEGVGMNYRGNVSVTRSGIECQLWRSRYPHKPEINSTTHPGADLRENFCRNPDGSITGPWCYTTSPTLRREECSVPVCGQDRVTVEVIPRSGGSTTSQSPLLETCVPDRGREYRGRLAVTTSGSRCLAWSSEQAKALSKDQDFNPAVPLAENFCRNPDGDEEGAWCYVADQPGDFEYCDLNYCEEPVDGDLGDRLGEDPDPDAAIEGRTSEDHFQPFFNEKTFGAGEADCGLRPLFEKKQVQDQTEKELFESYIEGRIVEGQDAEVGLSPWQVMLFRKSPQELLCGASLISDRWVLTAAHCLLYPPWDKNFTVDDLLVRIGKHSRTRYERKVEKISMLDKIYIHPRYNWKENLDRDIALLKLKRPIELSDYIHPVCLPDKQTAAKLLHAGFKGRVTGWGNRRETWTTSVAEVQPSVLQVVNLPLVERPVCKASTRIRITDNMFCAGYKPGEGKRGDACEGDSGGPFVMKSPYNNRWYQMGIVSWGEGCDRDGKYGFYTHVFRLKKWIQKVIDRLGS
Procedure: as §1, §2, §3, §4, §5

Urokinase (UK) = Urokinase (UK) (Homo sapiens, UniProt P00749); assay type: biochemical; settings: pH 8.2, 37° C., 10 minutes, 1000 IU/ml; for Selectivity UK, absorbance (O.D.) at 645 nm: TABLE 4, CHA substrates, So = 0.54; for Selectivity UK, absorbance (O.D.) at 405 nm: TABLE 3, PNA substrates, So = 0.54 mmole/l
Procedure: as §1, §2, §3, §4, §5

Factor-Xa (FXa) = Factor-Xa (FXa) (Bos taurus, UniProt P00743); assay type: biochemical, Cow; settings: pH 8.4, 37° C., 10 minutes, 0.4 U/ml; for Selectivity FXa, absorbance (O.D.) at 645 nm: TABLE 4, CHA substrates, So = 0.54; for Selectivity FXa, absorbance (O.D.) at 405 nm: TABLE 3, PNA substrates, So = 0.54 mmole/l
Factor-Xa (FXa), sequence (P00743 41-180): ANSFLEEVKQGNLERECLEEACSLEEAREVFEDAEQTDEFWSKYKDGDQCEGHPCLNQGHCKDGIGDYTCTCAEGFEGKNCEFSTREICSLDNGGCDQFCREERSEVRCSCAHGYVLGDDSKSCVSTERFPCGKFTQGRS
Factor-Xa (FXa), sequence (P00743 234-492): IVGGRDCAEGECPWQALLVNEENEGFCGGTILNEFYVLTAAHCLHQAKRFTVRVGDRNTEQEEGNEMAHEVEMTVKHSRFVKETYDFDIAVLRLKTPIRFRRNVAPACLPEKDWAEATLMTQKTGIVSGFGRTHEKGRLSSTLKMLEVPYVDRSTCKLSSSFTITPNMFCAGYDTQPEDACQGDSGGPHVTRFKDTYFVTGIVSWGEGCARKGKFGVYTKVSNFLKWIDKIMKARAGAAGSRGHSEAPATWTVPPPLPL
Procedure: as §1, §2, §3, §4, §5

Plasmin (PL) = Plasmin (PL) (Sus scrofa, UniProt P06867); assay type: biochemical, Pig; settings: pH 7.4, 37° C., 10 minutes, 0.32 CU/ml; for Selectivity PL, absorbance (O.D.) at 645 nm: TABLE 4, CHA substrates, So = 0.54; for Selectivity PL, absorbance (O.D.) at 405 nm: TABLE 3, PNA substrates, So = 0.54 mmole/l
Plasmin (PL), sequence (P06867 97-809): as the sequence (P06867 97-809) above
Procedure: as §2, §3
Plasmin Pig Sigma (U.S.A.)
as §5

[1] = TABLE 2, V/Km of each sample divided by that of S2251 (so in the source)
[2] = TABLE 1, PNA substrates, plasmin (pig)
[3] = TABLE 1, V/Km of each sample divided by that of S2251

Vmax (× 10^-7) (plasmin (pig))	Relative ratio (plasmin (pig); [1])	Selectivity KL, absorbance (O.D.) at 645 nm (Kallikrein (KL))	Selectivity TH, absorbance (O.D.) at 645 nm (Thrombin (TH))	Selectivity UK, absorbance (O.D.) at 645 nm (Urokinase (UK))	Selectivity FXa, absorbance (O.D.) at 645 nm (Factor-Xa (FXa))	Selectivity PL, absorbance (O.D.) at 645 nm (Plasmin (PL))	Structure (SMILES)	Vmax (× 10^7) (plasmin (pig); [2])	Relative ratio (plasmin (pig); [3])	Selectivity KL, absorbance (O.D.) at 405 nm (Kallikrein (KL))	Selectivity TH, absorbance (O.D.) at 405 nm (Thrombin (TH))	Selectivity UK, absorbance (O.D.) at 405 nm (Urokinase (UK))	Selectivity FXa, absorbance (O.D.) at 405 nm (Factor-Xa (FXa))	Selectivity PL, absorbance (O.D.) at 405 nm (Plasmin (PL))	Vmax (× 10^-6) [mole/min/Cu] (plasmin (pig); Porcine Plasmin, comparison table in description)	V/Km (× 10^-3) (plasmin (pig); [2])
8.266 × 10^-7	31.117	0.004 O.D.	0.001 O.D.	0.001 O.D.	0.002 O.D.	0.118 O.D.	CCCC(=O)NCCCC[C@@H](N)C(=O)N[C@@H](Cc1ccccc1)C(=O)N[C@@H](CCCCN)C(=O)Nc1ccc(O)c(C(=O)O)c1 [NPC-19]									
40.725 × 10^-7	74.040	0.019 O.D.	0 O.D.	0.004 O.D.	0.006 O.D.	0.467 O.D.	NCCCC[C@H](NC(=O)[C@H](Cc1ccccc1)NC(=O)[C@H](N)CCCCNC(=O)OCc1ccccc1)C(=O)Nc1ccc(O)c(C(=O)O)c1 [NPC-20]									
6.802 × 10^-7	17.414	0.010 O.D.	0 O.D.	0.004 O.D.	0.003 O.D.	0.093 O.D.	CC(C)OC(=O)C[C@@H](N)C(=O)N[C@@H](Cc1ccccc1)C(=O)N[C@@H](CCCCN)C(=O)Nc1ccc(O)c(C(=O)O)c1 [NPC-21]									
15.803 × 10^-7	43.613	0.006 O.D.	0 O.D.	0 O.D.	0 O.D.	0.185 O.D.	CS(=O)(=O)NCCCC[C@@H](N)C(=O)N[C@@H](Cc1ccccc1)C(=O)N[C@@H](CCCCN)C(=O)Nc1ccc(O)c(C(=O)O)c1 [NPC-25]									
							Cc1ccc(S(=O)(=O)NCCCC[C@@H](N)C(=O)N[C@@H](CC(C)C)C(=O)N[C@@H](CCCCN)C(=O)Nc2ccc([N+](=O)[O-])cc2)cc1 [NPN-1, HD-Lys(Tos)LeuLysPNA.2HBr] (H-[dK](Tos)-Leu-Lys-pNA)	63.600 × 10^7	2.937	0.006 O.D.	0 O.D.	0.001 O.D.	0.003 O.D.	0.457 O.D.		
							Cc1ccc(S(=O)(=O)NCCCC[C@@H](N)C(=O)N[C@@H](Cc2ccccc2)C(=O)N[C@@H](CCCCN)C(=O)Nc2ccc([N+](=O)[O-])cc2)cc1 [NPN-2, H-D-Lys(ToS)-Phe-Lys PNA.2HBr] (H-[dK](Tos)-Phe-Lys-pNA)	47.968 × 10^7	26.517	0.004 O.D.	0 O.D.	0.001 O.D.	0.003 O.D.	0.383 O.D.	4.8 × 10^-6 mole/min/Cu	303.595 × 10^-3
							NCCCC[C@H](NC(=O)[C@H](Cc1ccccc1)NC(=O)[C@H](N)CCC(=O)OC1CCCCC1)C(=O)Nc1ccc([N+](=O)[O-])cc1 [NPN-3, HD-Glu(CHN)PheLysPNA.2HBr] (HELM PEPTIDE1{[dE].F.K.[O=[N+]([O-])c1ccc(N[*:1])cc1]}|CHEM1{[C1CCC(O[*:1])CC1]}$PEPTIDE1,CHEM1,1:R3-1:R1$$$V2.0)	65.287 × 10^7	17.726	0.009 O.D.	0 O.D.	0.001 O.D.	0.003 O.D.	0.466 O.D.		
							NCCCC[C@H](NC(=O)[C@H](Cc1ccccc1)NC(=O)[C@H](N)CCC(=O)NCCc1ccccc1)C(=O)Nc1ccc([N+](=O)[O-])cc1 [NPN-4] (HELM PEPTIDE1{[dE].F.K.[O=[N+]([O-])c1ccc(N[*:1])cc1]}|CHEM1{[c1ccc(CCN[*:1])cc1]}$PEPTIDE1,CHEM1,1:R3-1:R1$$$V2.0)	23.895 × 10^7	7.481	0.010 O.D.	0.001 O.D.	0.002 O.D.	0.006 O.D.	0.330 O.D.		
							NCCCC[C@H](NC(=O)[C@H](Cc1ccccc1)NC(=O)[C@H](N)CCC(=O)NCCCc1ccccc1)C(=O)Nc1ccc([N+](=O)[O-])cc1 [NPN-5]	24.892 × 10^7	5.534	0.014 O.D.	0 O.D.	0.001 O.D.	0.005 O.D.	0.525 O.D.		
							NCCCC[C@H](NC(=O)[C@H](Cc1ccccc1)NC(=O)[C@H](N)CCC(=O)NCCCCc1ccccc1)C(=O)Nc1ccc([N+](=O)[O-])cc1 [NPN-6]	28.209 × 10^7	5.427	0.018 O.D.	0 O.D.	0.012 O.D.	0.003 O.D.	0.646 O.D.		
							Cc1ccc(CCNC(=O)CC[C@@H](N)C(=O)N[C@@H](Cc2ccccc2)C(=O)N[C@@H](CCCCN)C(=O)Nc2ccc([N+](=O)[O-])cc2)cc1 [NPN-7]	20.908 × 10^7	4.638	0.011 O.D.	0.001 O.D.	0.002 O.D.	0.008 O.D.	0.427 O.D.		
							NCCCC[C@H](NC(=O)[C@H](Cc1ccccc1)NC(=O)[C@H](N)CCC(=O)OCCc1ccccc1)C(=O)Nc1ccc([N+](=O)[O-])cc1 [NPN-8]	28.542 × 10^7	8.019	0.014 O.D.	0 O.D.	0.003 O.D.	0.005 O.D.	0.181 O.D.		
							Cc1ccc(CCOC(=O)CC[C@@H](N)C(=O)N[C@@H](Cc2ccccc2)C(=O)N[C@@H](CCCCN)C(=O)Nc2ccc([N+](=O)[O-])cc2)cc1 [NPN-9]	30.202 × 10^7	6.171	0.016 O.D.	0 O.D.	0.002 O.D.	0.006 O.D.	0.299 O.D.		

Structure (SMILES)	Vmax (× 10^-7) (plasmin (pig))	Relative ratio (plasmin (pig); [1])	Selectivity KL, absorbance (O.D.) at 645 nm (Kallikrein (KL))	Selectivity TH, absorbance (O.D.) at 645 nm (Thrombin (TH))	Selectivity UK, absorbance (O.D.) at 645 nm (Urokinase (UK))	Selectivity FXa, absorbance (O.D.) at 645 nm (Factor-Xa (FXa))	Selectivity PL, absorbance (O.D.) at 645 nm (Plasmin (PL))	Vmax (× 10^7) (plasmin (pig); [2])	Relative ratio (plasmin (pig); [3])	Selectivity KL, absorbance (O.D.) at 405 nm (Kallikrein (KL))	Selectivity TH, absorbance (O.D.) at 405 nm (Thrombin (TH))	Selectivity UK, absorbance (O.D.) at 405 nm (Urokinase (UK))	Selectivity FXa, absorbance (O.D.) at 405 nm (Factor-Xa (FXa))	Selectivity PL, absorbance (O.D.) at 405 nm (Plasmin (PL))	Vmax (× 10^-6) [mole/min/Cu] (plasmin (pig); Porcine Plasmin, comparison table in description)	V/Km (× 10^-3) (plasmin (pig); [2])
NCCCC[C@H](NC(=O)[C@H](Cc1ccccc1)NC(=O)[C@H](N)CC(=O)OC1CCCCC1)C(=O)Nc1ccc(O)c(C(=O)O)c1 [NPC-22]	17.991 × 10^-7	42.715	0.023 O.D.	0 O.D.	0.026 O.D.	0.015 O.D.	0.213 O.D.									
NCCCC[C@H](NC(=O)[C@H](Cc1ccccc1)NC(=O)[C@H](N)CCC(=O)NCCc1ccccc1)C(=O)Nc1ccc(O)c(C(=O)O)c1 [NPC-23]	18.963 × 10^-7	43.045	0.009 O.D.	0 O.D.	0.004 O.D.	0.005 O.D.	0.223 O.D.									
Cc1ccc(CCNC(=O)CC[C@@H](N)C(=O)N[C@@H](Cc2ccccc2)C(=O)N[C@@H](CCCCN)C(=O)Nc2ccc(O)c(C(=O)O)c2)cc1 [NPC-24]	21.637 × 10^-7	46.748	0.009 O.D.	0 O.D.	0.004 O.D.	0.005 O.D.	0.279 O.D.									
